“Also recorded” adds a separate entry of the source.
How the values were obtained:
human SIRT5 = target: T1, human SIRT5 (Homo sapiens, UniProt Q9NXA8); experiment: SIRT5 rate measurement, fluorogenic p53-382 peptide deacetylation; type: biochemical; design: His6 (histidine tag, 2.5 kDa) (N); made in house; host or cells: E. coli; conditions: for relative activation of SIRT5 versus SIRT1 (in words): comparison of Table 2 SIRT5 and SIRT1 data
T1 sequence (Q9NXA8 37-310): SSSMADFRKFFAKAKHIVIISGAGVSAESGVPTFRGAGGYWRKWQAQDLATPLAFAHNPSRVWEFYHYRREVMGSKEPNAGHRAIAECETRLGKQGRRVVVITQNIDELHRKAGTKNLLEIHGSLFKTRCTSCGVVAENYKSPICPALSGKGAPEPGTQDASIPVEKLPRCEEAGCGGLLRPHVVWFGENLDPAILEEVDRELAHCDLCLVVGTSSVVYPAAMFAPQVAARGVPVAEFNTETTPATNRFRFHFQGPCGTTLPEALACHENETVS

human SIRT1 = target: T2, human SIRT1 (Homo sapiens, UniProt Q96EB6); experiment: SIRT1 rate measurement, fluorogenic p53-382 peptide deacetylation; type: biochemical; conditions: 100 μM test compounds; 25 μM NAD+, 25 μM p53-382 peptide
T2 construct: made in house; host or cells: E. coli
T2 sequence (Q96EB6 1-747): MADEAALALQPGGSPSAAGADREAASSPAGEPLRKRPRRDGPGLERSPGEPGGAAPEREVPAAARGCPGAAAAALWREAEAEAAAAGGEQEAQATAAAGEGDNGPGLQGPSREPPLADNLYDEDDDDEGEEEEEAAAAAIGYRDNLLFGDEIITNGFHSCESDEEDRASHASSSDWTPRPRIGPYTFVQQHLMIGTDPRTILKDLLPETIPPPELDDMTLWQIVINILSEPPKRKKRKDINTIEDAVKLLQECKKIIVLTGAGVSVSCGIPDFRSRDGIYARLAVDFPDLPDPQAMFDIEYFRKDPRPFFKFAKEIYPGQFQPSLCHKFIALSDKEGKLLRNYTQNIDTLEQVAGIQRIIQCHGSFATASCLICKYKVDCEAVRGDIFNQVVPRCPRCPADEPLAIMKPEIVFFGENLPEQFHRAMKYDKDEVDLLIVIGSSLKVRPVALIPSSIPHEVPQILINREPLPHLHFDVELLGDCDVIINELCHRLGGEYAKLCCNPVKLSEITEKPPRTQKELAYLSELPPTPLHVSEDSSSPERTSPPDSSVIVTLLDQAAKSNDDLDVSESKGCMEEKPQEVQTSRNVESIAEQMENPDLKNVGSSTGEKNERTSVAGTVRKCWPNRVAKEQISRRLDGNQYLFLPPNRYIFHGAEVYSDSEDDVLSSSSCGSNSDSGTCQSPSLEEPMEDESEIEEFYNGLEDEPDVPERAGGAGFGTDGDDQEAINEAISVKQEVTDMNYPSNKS

[1] = 200 μM test compounds, 500 μM NAD+, 100 μM p53-382 peptide

Structure (SMILES)	identified as human SIRT5 inhibitor (human SIRT5)	SIRT5 Ratio of Control Rates Mean ± SE Compounds at 200 μM (human SIRT5; [1])	SIRT1 Ratio to Control Rates Mean ± SE Compounds at 100 μM (human SIRT1)	maximum stimulation observed for SIRT1, increase in activity (human SIRT1) [fold]	maximum stimulation observed for SIRT5, increase in activity (human SIRT5; [1]) [fold]	relative activation of SIRT5 versus SIRT1 (in words) (human SIRT5)
Oc1cccc(/C=C/c2ccccc2)c1 [3-Hydroxy-trans-stilbene]	SIRT5 inhibitors	0.79 ± 0.06	2.36 ± 0.07			
COc1ccc(/C=C/c2ccccc2)cc1 [4-Methoxy-trans-stilbene]	SIRT5 inhibitors	0.79 ± 0.20	0.84 ± 0.09			
O=c1c(O)c(-c2ccc(O)c(O)c2)oc2cc(O)cc(O)c12 [Quercetin, 3,5,7,3′,4′-Pentahydroxyflavone]		2.18 ± 0.10	4.59 ± 0.47			relatively less potent SIRT5 activation
CC(Cc1ccc(O)c(O)c1)C(C)Cc1ccc(O)c(O)c1 (stereo not drawn) [NDGA, Nordihydroguaiaretic acid]		1.91 ± 0.02	1.738 ± 0.088			
Cc1ccc(NC(=O)c2cccc(N(C)C)c2)cc1NC(=O)c1ccc(O)cc1 [ZM 336372, N-[5-(3-dimethylaminobenzamido)-2-methylphenyl]-4-hydroxybenzamide]	SIRT5 inhibitors	0.74 ± 0.05	3.5 ± 1.1			selective activators of SIRT1 as compared to SIRT5
CC(=O)Oc1ccc(/C=C/c2cc(O)cc(O)c2)cc1 [BML-221, 3,5-Dihydroxy-4′-acetoxy-trans-stilbene]		2.89 ± 0.15	3.05 ± 0.54			
O=c1c(O)c(-c2ccc(O)c(O)c2)oc2cc(O)ccc12 [Fisetin, 3,7,3′,4′-Tetrahydroxyflavone]		2.61 ± 0.19	6.58 ± 0.69			relatively less potent SIRT5 activation
CC(=O)Oc1cc(O)cc(/C=C/c2ccc(O)cc2)c1 [BML-227, 3,4′-Dihydroxy-5-acetoxy-trans-stilbene]		2.09 ± 0.25	2.69 ± 0.08			
Oc1cc(O)cc(/C=C/c2ccc(O)c(O)c2)c1 [Piceatannol, 3,5,3′,4′-Tetrahydroxy-trans-stilbene]		3.23 ± 0.21	7.90 ± 0.50			relatively more potent at activating SIRT1 than SIRT5
Oc1cc(O)cc(/C=C/c2ccccc2)c1 [Pinosylvin, 3,5-Dihydroxy-trans-stilbene]		2.71 ± 0.092	9.95 ± 0.45			relatively more potent at activating SIRT1 than SIRT5
O=C(/C=C/c1ccc(O)c(O)c1)c1ccc(O)cc1O [Butein, 3,4,2′,4′-Tetrahydroxychalcone]		2.19 ± 0.10	8.53 ± 0.89			selective activators of SIRT1 as compared to SIRT5; also recorded: relatively less potent SIRT5 activation
Oc1ccc(/C=C/c2ccccc2)cc1O [3,4-Dihydroxy-trans-stilbene]	SIRT5 inhibitors	0.58 ± 0.25	1.64 ± 0.10			

Continued, in another order:

identified as human SIRT5 inhibitor (human SIRT5)	SIRT5 Ratio of Control Rates Mean ± SE Compounds at 200 μM (human SIRT5; [1])	SIRT1 Ratio to Control Rates Mean ± SE Compounds at 100 μM (human SIRT1)	maximum stimulation observed for SIRT1, increase in activity (human SIRT1) [fold]	maximum stimulation observed for SIRT5, increase in activity (human SIRT5; [1]) [fold]	Structure (SMILES)	relative activation of SIRT5 versus SIRT1 (in words) (human SIRT5)
	2.09 ± 0.25	1.36 ± 0.10			O=C(O)c1ccc(/C=C/c2cc(O)cc(O)c2)cc1 [BML-238, 3,5-Dihydroxy-4′-carboxy-trans-stilbene]	
	4.50 ± 0.28	2.74 ± 0.37			COC(=O)c1ccc(/C=C/c2cc(O)cc(O)c2)cc1 [BML-237, 3,5-Dihydroxy-4′-carbomethoxy-trans-stilbene]	selective activators of SIRT5 as compared to SIRT1
	3.43 ± 0.10	6.78 ± 0.22			O=[N+]([O-])c1ccc(/C=C/c2cc(O)cc(O)c2)cc1 [BML-229, 3,5-Dihydroxy-4′-nitro-trans-stilbene]	
	3.10 ± 0.016				COc1cc(O)cc(/C=C/c2ccc(NC(C)=O)cc2)c1 [BML-223, 3-methoxy-5-hydroxy-4′-acetamido-trans-stilbene]	
	8.41 ± 0.22	6.01 ± 0.15			CC(C)c1ccc(/C=C/c2cc(O)cc(O)c2)cc1 [BML-231, 3,5-Dihydroxy-4′-isopropyl-trans-stilbene]	
	2.47 ± 0.22	3.05 ± 0.37			Oc1cc(O)cc(/C=C/c2ccc3ccccc3c2)c1 [BML-218, (E)-1-(3,5-Dihydroxyphenyl)-2-(2-napthyl)ethene]	
	4.60 ± 0.17	6.84 ± 1.26			CSc1ccc(/C=C/c2cc(O)cc(O)c2)cc1 [BML-230, 3,5-Dihydroxy-4′-thiomethyl-trans-stilbene]	
	2.49 ± 0.29	1.26 ± 0.12			Oc1cc(O)cc(/C=C/c2ccncc2)c1 [BML-236, (E)-1-(3,5-Dihydroxyphenyl)-2-(4-pyridyl)ethene]	
	8.41 ± 0.36	9.373 ± 0.014			CCc1ccc(/C=C/c2cc(O)cc(O)c2)cc1 [BML-225, 3,5-Dihydroxy-4′-ethyl-trans-stilbene]	
	2.12 ± 0.34	12.6 ± 0.4	12.6		CCSc1ccc(/C=C/c2cc(O)cc(O)c2)cc1 [BML-243, 3,5-Dihydroxy-4′-thioethyl-trans-stilbene]	selective activators of SIRT1 as compared to SIRT5; also recorded: relatively less potent SIRT5 activators
	1.40 ± 0.23	1.30 ± 0.04			Oc1cc(O)cc(/C=C/C2CCCCC2)c1 [BML-224, (E)-1-(3,5-Dihydroxyphenyl)-2-(cyclohexyl)ethene]	
	13.6 ± 0.4	10.6 ± 0.4		13.6	Oc1cc(O)cc(/C=C/c2ccc(Cl)cc2)c1 [BML-217, 3,5-Dihydroxy-4′-chloro-trans-stilbene]	potent activator of SIRT5 and SIRT1
	2.26 ± 0.17	1.88 ± 0.11			CC(=O)Nc1ccc(/C=C/c2cc(O)cc(O)c2)cc1 [BML-222, 3,5-Dihydroxy-4′-acetamide-trans-stilbene]	
	8.12 ± 0.31	7.72 ± 0.12			Cc1ccc(/C=C/c2cc(O)cc(O)c2)cc1 [BML-228, 3,5-Dihydroxy-4′-methyl-trans-stilbene]	

— patent US20120172340A1, “Compositions and Methods for Selectively Activating Human Sirtuins” (BIOMOL International L.P., priority 2004, published 2012)
